Results as given in PubChem BioAssay AID2060619 (Molecular Pharmacology Branch, DTP, NCI, 2025).
One block for each molecule: values may come before it.

System: 323965-272-R-J2-PDC complex spheroid viability
Assay: Anticancer human tumor 323965-272-R-J2-PDC patient-derived pancreatic carcinoma cell line growth inhibition [CLK]
Conditions: for IC50: curve of first compound; for viability, T/C: stronger effect = lower value
Method in brief: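 Patient-derived tumor cells grown as complex spheroids with HUVEC endothelial cells and mesenchymal stem cells, treated with drug combinations. Concentrations descend in half-log steps from near clinical Cmax, or from 10 microM if Cmax unknown.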

[1] = second compound 0.0316 µM, first compound 0.00316 µM
[2] = second compound 0.0316 µM, first compound 0.01 µM
[3] = second compound 0.0316 µM, first compound 0.0316 µM
[4] = second compound 0.0316 µM, first compound 0.1 µM
[5] = second compound 0.0316 µM, first compound 0.316 µM
[6] = second compound 0.0316 µM, first compound 1 µM
[7] = second compound 0.1 µM, first compound 0.00316 µM
[8] = second compound 0.1 µM, first compound 0.01 µM
[9] = second compound 0.1 µM, first compound 0.0316 µM
[10] = second compound 0.1 µM, first compound 0.1 µM
[11] = second compound 0.1 µM, first compound 0.316 µM
[12] = second compound 0.1 µM, first compound 1 µM
[13] = second compound 0.316 µM, first compound 0.00316 µM
[14] = second compound 0.316 µM, first compound 0.01 µM
[15] = second compound 0.316 µM, first compound 0.0316 µM
[16] = second compound 0.316 µM, first compound 0.1 µM
[17] = second compound 0.316 µM, first compound 0.316 µM
[18] = second compound 0.316 µM, first compound 1 µM
[19] = second compound 1 µM, first compound 0.00316 µM
[20] = second compound 1 µM, first compound 0.01 µM
[21] = second compound 1 µM, first compound 0.0316 µM
[22] = second compound 1 µM, first compound 0.1 µM
[23] = second compound 1 µM, first compound 0.316 µM
[24] = second compound 1 µM, first compound 1 µM
[25] = second compound 3.16 µM, first compound 0.00316 µM
[26] = second compound 3.16 µM, first compound 0.01 µM
[27] = second compound 3.16 µM, first compound 0.0316 µM
[28] = second compound 3.16 µM, first compound 0.1 µM
[29] = second compound 3.16 µM, first compound 0.316 µM
[30] = second compound 3.16 µM, first compound 1 µM
[31] = second compound 10 µM, first compound 0.00316 µM
[32] = second compound 10 µM, first compound 0.01 µM
[33] = second compound 10 µM, first compound 0.0316 µM
[34] = second compound 10 µM, first compound 0.1 µM
[35] = second compound 10 µM, first compound 0.316 µM
[36] = second compound 10 µM, first compound 1 µM
[37] = second compound 0.0316 µM, first compound 3.16 µM
[38] = second compound 0.0316 µM, first compound 10 µM
[39] = second compound 0.1 µM, first compound 3.16 µM
[40] = second compound 0.1 µM, first compound 10 µM
[41] = second compound 0.316 µM, first compound 3.16 µM
[42] = second compound 0.316 µM, first compound 10 µM
[43] = second compound 1 µM, first compound 3.16 µM
[44] = second compound 1 µM, first compound 10 µM
[45] = second compound 3.16 µM, first compound 3.16 µM
[46] = second compound 3.16 µM, first compound 10 µM
[47] = second compound 10 µM, first compound 3.16 µM
[48] = second compound 10 µM, first compound 10 µM
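Also: spheroids exposed to agents for seven days before readout.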
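For viability, T/C in this document: percent of DMSO vehicle control wells so 100% = untreated growth.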

Structure (SMILES): Cn1ncnc1[C@H]1c2n[nH]c(=O)c3cc(F)cc(c23)N[C@@H]1c1ccc(F)cc1 + CNC(=O)c1ccc(Nc2nc(OC3CCCC3)c3c(-c4ccc5nc(C)oc5c4)c[nH]c3n2)c(OC)c1
IC50 (second compound 0.0316 µM): > 100 nM
IC50 (second compound 0.1 µM): > 100 nM
IC50 (second compound 0.316 µM): > 100 nM
IC50 (second compound 1 µM): < 0.316 nM
IC50 (second compound 3.16 µM): < 0.316 nM
IC50 (second compound 10 µM): < 0.316 nM
viability, T/C (second compound 0.0316 µM, first compound 0.000316 µM): 126%
viability, T/C (second compound 0.0316 µM, first compound 0.001 µM): 118%
viability, T/C [1]: 104%
viability, T/C [2]: 110%
viability, T/C [3]: 86.8%
viability, T/C [4]: 97.1%
viability, T/C (second compound 0.1 µM, first compound 0.000316 µM): 86.2%
viability, T/C (second compound 0.1 µM, first compound 0.001 µM): 75.3%
viability, T/C [7]: 78.9%
viability, T/C [8]: 85.3%
viability, T/C [9]: 76.1%
viability, T/C [10]: 66%
viability, T/C (second compound 0.316 µM, first compound 0.000316 µM): 69.6%
viability, T/C (second compound 0.316 µM, first compound 0.001 µM): 66.7%
viability, T/C [13]: 55.5%
viability, T/C [14]: 67.8%
viability, T/C [15]: 70%
viability, T/C [16]: 51.6%
viability, T/C (second compound 1 µM, first compound 0.000316 µM): 41.3%
viability, T/C (second compound 1 µM, first compound 0.001 µM): 45.5%
viability, T/C [19]: 48.5%
viability, T/C [20]: 38.3%
viability, T/C [21]: 52%
viability, T/C [22]: 43.4%
viability, T/C (second compound 3.16 µM, first compound 0.000316 µM): 36.7%
viability, T/C (second compound 3.16 µM, first compound 0.001 µM): 47.2%
viability, T/C [25]: 42.4%
viability, T/C [26]: 43.9%
viability, T/C [27]: 51.5%
viability, T/C [28]: 43.3%
viability, T/C (second compound 10 µM, first compound 0.000316 µM): 37.1%
viability, T/C (second compound 10 µM, first compound 0.001 µM): 36.6%
viability, T/C [31]: 42.6%
viability, T/C [32]: 45.7%
viability, T/C [33]: 43.1%
viability, T/C [34]: 43.1%

Structure (SMILES): Nc1ccn(C2OC(CO)C(O)C2(F)F)c(=O)n1 (stereo not given) + CNC(=O)c1ccc(Nc2nc(OC3CCCC3)c3c(-c4ccc5nc(C)oc5c4)c[nH]c3n2)c(OC)c1
IC50 (second compound 0.0316 µM): < 31.6 nM
IC50 (second compound 0.1 µM): < 31.6 nM
IC50 (second compound 0.316 µM): < 31.6 nM
IC50 (second compound 1 µM): < 31.6 nM
IC50 (second compound 3.16 µM): < 31.6 nM
IC50 (second compound 10 µM): < 31.6 nM
viability, T/C [3]: 30.7%
viability, T/C [4]: 33%
viability, T/C [5]: 30.3%
viability, T/C [6]: 27.9%
viability, T/C [37]: 27.9%
viability, T/C [38]: 30.4%
viability, T/C [9]: 37.4%
viability, T/C [10]: 33.3%
viability, T/C [11]: 26%
viability, T/C [12]: 32.3%
viability, T/C [39]: 30.2%
viability, T/C [40]: 32.1%
viability, T/C [15]: 32.9%
viability, T/C [16]: 27.8%
viability, T/C [17]: 25.4%
viability, T/C [18]: 27.8%
viability, T/C [41]: 28.1%
viability, T/C [42]: 25.2%
viability, T/C [21]: 24.2%
viability, T/C [22]: 21.4%
viability, T/C [23]: 21.4%
viability, T/C [24]: 18.9%
viability, T/C [43]: 17.8%
viability, T/C [44]: 18.9%
viability, T/C [27]: 25.6%
viability, T/C [28]: 22.8%
viability, T/C [29]: 21.6%
viability, T/C [30]: 21.2%
viability, T/C [45]: 19.7%
viability, T/C [46]: 18.2%
viability, T/C [33]: 26.7%
viability, T/C [34]: 23%
viability, T/C [35]: 24.2%
viability, T/C [36]: 21.1%
viability, T/C [47]: 22%
viability, T/C [48]: 15.8%

Structure (SMILES): O=C(c1cc(Cc2n[nH]c(=O)c3ccccc23)ccc1F)N1CCN(C(=O)C2CC2)CC1 + CNC(=O)c1ccc(Nc2nc(OC3CCCC3)c3c(-c4ccc5nc(C)oc5c4)c[nH]c3n2)c(OC)c1
IC50 (second compound 0.0316 µM): > 10000 nM
IC50 (second compound 0.1 µM): > 10000 nM
IC50 (second compound 0.316 µM): > 10000 nM
IC50 (second compound 1 µM): > 10000 nM
IC50 (second compound 3.16 µM): < 31.6 nM
IC50 (second compound 10 µM): < 31.6 nM
viability, T/C [3]: 129%
viability, T/C [4]: 115%
viability, T/C [5]: 107%
viability, T/C [6]: 105%
viability, T/C [37]: 117%
viability, T/C [38]: 92%
viability, T/C [9]: 101%
viability, T/C [10]: 93.4%
viability, T/C [11]: 94.4%
viability, T/C [12]: 95.4%
viability, T/C [39]: 88.6%
viability, T/C [40]: 82.2%
viability, T/C [15]: 64.3%
viability, T/C [16]: 64.4%
viability, T/C [17]: 57.9%
viability, T/C [18]: 61.8%
viability, T/C [41]: 73.2%
viability, T/C [42]: 63.1%
viability, T/C [21]: 55.4%
viability, T/C [22]: 47.4%
viability, T/C [23]: 51.5%
viability, T/C [24]: 53.4%
viability, T/C [43]: 51.3%
viability, T/C [44]: 52.5%
viability, T/C [27]: 44%
viability, T/C [28]: 52.6%
viability, T/C [29]: 46.8%
viability, T/C [30]: 48.3%
viability, T/C [45]: 40%
viability, T/C [46]: 48.8%
viability, T/C [33]: 44.3%
viability, T/C [34]: 44.7%
viability, T/C [35]: 44.5%
viability, T/C [36]: 43.8%
viability, T/C [47]: 46.7%
viability, T/C [48]: 53.4%

The next lines start with results.

IC50 (second compound 0.0316 µM): 7.88 nM
IC50 (second compound 0.1 µM): 8.14 nM
IC50 (second compound 0.316 µM): 4.18 nM
IC50 (second compound 1 µM): < 3.16 nM
IC50 (second compound 3.16 µM): < 3.16 nM
IC50 (second compound 10 µM): < 3.16 nM
Structure (SMILES): CCc1c2c(nc3ccc(O)cc13)-c1cc3c(c(=O)n1C2)COC(=O)[C@]3(O)CC + CNC(=O)c1ccc(Nc2nc(OC3CCCC3)c3c(-c4ccc5nc(C)oc5c4)c[nH]c3n2)c(OC)c1
viability, T/C [1]: 73.5%
viability, T/C [2]: 42.4%
viability, T/C [3]: 33%
viability, T/C [4]: 30.2%
viability, T/C [5]: 24.4%
viability, T/C [6]: 23.4%
viability, T/C [7]: 61%
viability, T/C [8]: 47.1%
viability, T/C [9]: 39%
viability, T/C [10]: 29.9%
viability, T/C [11]: 25%
viability, T/C [12]: 24%
viability, T/C [13]: 54.1%
viability, T/C [14]: 38.7%
viability, T/C [15]: 30%
viability, T/C [16]: 27.9%
viability, T/C [17]: 18.4%
viability, T/C [18]: 16.8%
viability, T/C [19]: 34.8%
viability, T/C [20]: 25.8%
viability, T/C [21]: 21.9%
viability, T/C [22]: 16.6%
viability, T/C [23]: 15.2%
viability, T/C [24]: 10.9%
viability, T/C [25]: 30.9%
viability, T/C [26]: 30.1%
viability, T/C [27]: 25.3%
viability, T/C [28]: 14.3%
viability, T/C [29]: 17%
viability, T/C [30]: 11.9%
viability, T/C [31]: 30.5%
viability, T/C [32]: 23.6%
viability, T/C [33]: 20.9%
viability, T/C [34]: 16%
viability, T/C [35]: 14.2%
viability, T/C [36]: 8.54%

IC50 (second compound 0.0316 µM): > 10000 nM
IC50 (second compound 0.1 µM): > 10000 nM
IC50 (second compound 0.316 µM): 1900 nM
IC50 (second compound 1 µM): < 31.6 nM
IC50 (second compound 3.16 µM): < 31.6 nM
IC50 (second compound 10 µM): < 31.6 nM
Structure (SMILES): O=c1[nH]cc(F)c(=O)[nH]1 + CNC(=O)c1ccc(Nc2nc(OC3CCCC3)c3c(-c4ccc5nc(C)oc5c4)c[nH]c3n2)c(OC)c1
viability, T/C [3]: 84.2%
viability, T/C [4]: 91.9%
viability, T/C [5]: 110%
viability, T/C [6]: 91.4%
viability, T/C [37]: 73.8%
viability, T/C [38]: 55.4%
viability, T/C [9]: 85.1%
viability, T/C [10]: 80.5%
viability, T/C [11]: 72.4%
viability, T/C [12]: 65.6%
viability, T/C [39]: 57.3%
viability, T/C [40]: 53.1%
viability, T/C [15]: 59.2%
viability, T/C [16]: 59.9%
viability, T/C [17]: 57.8%
viability, T/C [18]: 48.3%
viability, T/C [41]: 50.6%
viability, T/C [42]: 41.6%
viability, T/C [21]: 43.9%
viability, T/C [22]: 41.1%
viability, T/C [23]: 48.1%
viability, T/C [24]: 38.2%
viability, T/C [43]: 34.7%
viability, T/C [44]: 29.3%
viability, T/C [27]: 40.6%
viability, T/C [28]: 36.8%
viability, T/C [29]: 37.4%
viability, T/C [30]: 36.9%
viability, T/C [45]: 29.5%
viability, T/C [46]: 27.2%
viability, T/C [33]: 37.8%
viability, T/C [34]: 42.7%
viability, T/C [35]: 38.9%
viability, T/C [36]: 37.6%
viability, T/C [47]: 31.4%
viability, T/C [48]: 31.3%
